Reference: patent US4885314A, “Novel HMG-CoA reductase inhibitors” (Merck & Co., Inc., priority 1988, dated 1989)

System: HMG-CoA reductase
Assay: in vitro HMG-CoA reductase inhibition (protocol of J. Med. Chem., 1985, 28, page 347)
Assay type: biochemical
Conditions: percent of the activity exhibited by mevinolin in the same protocol
Experimental: The intrinsic HMG-CoA reductase inhibition activity of the claimed compounds is measured in the in vitro protocol described is J. Med. Chem., 1985, 28, page 347.

With C=C1C=C2C=C[C@H](C)[C@H](CC[C@@H](O)C[C@@H](O)CC(=O)O)C2[C@@H](OC(=O)C(C)CC)C1 (stereo partly shown) as the compound, how does the relative inhibitory activity read?
The relative inhibitory activity was 50%.
